# Test results taken from patent publication US20190374509A1, “Methods of Using Metamizole for Treatment of Pyrexia in Equines” (Kindred Biosciences, Inc., priority 2018, published 2019).
# How the values were obtained:
# Type in all cases: in vivo
# horses [1] = assay: Coagulation effects study, IV BID or TID for 9 days: coagulation panel; details: for Prothrombin Time LSMEAN: in s; for Difference in Individual Horse Day 10 PT and Baseline PT: Day 10 PT minus highest baseline PT
# Description: The purpose of this study was to evaluate the effects of metamizole on coagulation parameters and pharmacokinetic parameters when administered intravenously to horses for 9 days at doses of 0 mg/kg (0×), 30 mg/kg (1×), 60 mg/kg (2×), and 90 mg/kg (3×) of body weight. Doses of 0×, 1×, 2×, and 3× were administered twice daily (BID), every 12 hours±120 min. Doses of 1× and 2× were administered three times daily (TID), every 8 hours±120 min. Metamizole plasma concentrations were assessed in the 1×BID, 3×BID, 1×TID, and 2×TID treatments groups to evaluate for evidence of accumulation.
# This was a prospective, randomized, masked, placebo-controlled, parallel-group laboratory study. The protocol was approved by the research laboratory's Institutional Animal Care and Use Committee (IACUC). The study was conducted in compliance with the principles of the relevant CVM Good Clinical Practices Guidelines. Horse care and housing was in compliance with Guide for the Care and Use of Agricultural Animals in Research and Teaching. The study was conducted at a research laboratory with extensive experience in regulatory studies of large animals in the United States.
# The investigational drug was a sterile injectable formulation of dipyrone (Zimeta®, Corden Pharma, Caponago, Italy) (500 mg/mL) in 100 mL glass bottles. The placebo was sterile injectable saline (0.9% Saline, Nova-Tech Inc, Grand Island, NE) (0.9% sodium chloride) in 500 mL plastic bottles labeled for veterinary use. Dipyrone treatment groups were 30 mg/kg/dose (1×) administered twice daily (BID), 1× administered three times daily (TID), 60 mg/kg/dose (2×) BID, 2×TID, and 90 mg/kg/dose (3×) BID. Placebo treatment group, (0×) BID, were saline administered at a volume to match the 1× dipyrone group. The dose was calculated based on body weight and administered for nine consecutive days (Days 1-9). Due to the large volume of the injection at the higher test intervals, treatment was administered via indwelling intravenous catheters. Intravenous catheters were placed using standard techniques. Horses were sedated with xylazine (XylaMed™, VetOne, MWI, Boise, Id.) (0.6 mg/kg, IV) and the skin was desensitized with subcutaneous injection of lidocaine (Lidocaine 2%, VetOne, MWI, Boise, Id.). Intravenous catheters were replaced at the discretion of the study director and were maintained with heparinized saline flush prior to, and following, dose administration.
# Horses were acclimated to the facility for 14 days prior to start of the treatment phase. […] On Day −1, thirty-two horses were randomized by the study statistician and moved to their assigned pens. On Day −1 (baseline), Day 4, and Day 10 horses had blood collected for a coagulation panel. A physical exam was performed prior to study start and on Day 10.
# For continuous endpoints with repeated post-treatment measurements (coagulation), repeated measurement analysis of covariance (SAS MIXED procedure repeated measures of analysis of covariance (RMANCOVA)) were used to evaluate a model including treatment, time, sex, treatment by sex interaction, treatment by time interaction, time by sex interaction, and treatment by time by sex three-way interaction as fixed effects. In addition, baseline values were included as a covariate and remained in the model regardless of its significance. Baseline values were defined as the values prior to and nearest to the first dosing.
# horses [2] = assay: Pyrexia efficacy Study 1 (unmasked, single IV dose, rectal temperature); details: 30 mg/kg IV single dose; for Mean (± SD) temperature change from baseline: horses with rectal temperature ≥102.0° F.
# Description: Study 1: The unmasked laboratory study was conducted at a clinical research organization in the United States. Institutional Animal Care and Use Committee (IACUC) approval was obtained prior to the conduct of the study. Horses one year of age or older were comingled by the Investigator in order to facilitate transmission of respiratory infections. Horses were monitored by the study staff for elevation of rectal temperature. All horses received treatment once the rectal temperature was ≥102.0° F. A single dose of dipyrone was administered intravenously (30 mg/kg IV). Rectal temperature was monitored 1, 2, 3, and 6 hours post-treatment administration.
# (§1) In both studies horses were assessed daily to determine overall safety. Medications that could have impacted the temperature or the underlying cause of the disease were not permitted in either study; however, horses in both studies were eligible for rescue at the discretion of the Investigator. Following completion of the study, the Investigator treated the horses with standard of care for the type, and severity, of clinical signs. Statistical analysis was performed with the Wilcoxon rank sum test (SAS®, SAS Institute, Cary N.C., version 9.4).
# horses [3] = assay: Pyrexia efficacy Study 2 (masked, randomized, placebo controlled, crossover, rectal temperature); details: for Mean (standard deviation) temperature: 30 mg/kg IV single dose
# Description: Study 2: The masked, randomized, placebo controlled laboratory study was conducted at a clinical research organization in the United States. IACUC approval was obtained prior to the conduct of the study. Horses one year of age or older were comingled by the Investigator in order to facilitate transmission of respiratory infections. Horses were monitored by the study staff for elevation of rectal temperature. […] Unblinded dose administrators administered the study drug (Phase 1). A single dose of study drug was administered. Treatment was either dipyrone (30 mg/kg IV) or placebo (saline, matched volume, IV). Blinded personnel recorded the rectal temperature at 4 and 6 hours post-treatment administration. Twenty-four hours following Dose 1 horses were monitored for rectal temperature. Horses with rectal temperature≥102.0° F. were crossed over to the other treatment group. Unblinded dose administrators administered the study drug (Phase 2), and blinded personnel recorded the rectal temperature 4 and 6 hours post-treatment administration. […] Blinding was maintained until the completion of the statistical analysis.
# as §1
# [4] = 2X TID, 60 mg/kg IV three times daily
# [5] = 3X BID, 90 mg/kg IV twice daily
smiles,measurement,setting,value
"Cc1c(N(C)CS(=O)(=O)O)c(=O)n(-c2ccccc2)n1C [dipyrone, [(2,3-dihydro-1,5-dimethyl-3-oxo-2-phenyl-1H-pyrazol-4-yl)methylamino] methanesulfonic acid]",Prothrombin Time LSMEAN,"horses [1]; 1X BID, 30 mg/kg IV twice daily for 9 days",13.407
same,Prothrombin Time LSMEAN,"horses [1]; 1X TID, 30 mg/kg IV three times daily for 9 days",13.553
same,Prothrombin Time LSMEAN,"horses [1]; 2X BID, 60 mg/kg IV twice daily for 9 days",13.469
same,Prothrombin Time LSMEAN,"horses [1]; 2X TID, 60 mg/kg IV three times daily for 9 days",13.733
same,Prothrombin Time Day 4 Range,horses [1]; [4],12.9 to 15.6 s
same,Prothrombin Time Day 10 Range,horses [1]; [4],13.2 to 16.6 s
same,Difference in Individual Horse Day 10 PT and Baseline PT,horses [1]; [4],0.1 to 0.5 s
same,Prothrombin Time LSMEAN,"horses [1]; 3X BID, 90 mg/kg IV twice daily for 9 days",14.238
same,Prothrombin Time Day 4 Range,horses [1]; [5],13.2 to 14.5 s
same,Prothrombin Time Day 10 Range,horses [1]; [5],13.4 to 14.9 s
same,Difference in Individual Horse Day 10 PT and Baseline PT,horses [1]; [5],0.1 to 0.7 s
same,Activated partial thromboplastin time (APTT) or fibrinogen,"horses [1]; all treatment groups (30-90 mg/kg IV BID or TID, 9 days)",No main treatment effect
same,Mean (± SD) temperature change from baseline,horses [2]; Hour 1,−1.1 (± 0.5) ° F.
same,Mean (± SD) temperature change from baseline,horses [2]; Hour 2,−1.4 (± 1.0) ° F.
same,Mean (± SD) temperature change from baseline,horses [2]; Hour 3,−1.9 (± 1.0) ° F.
same,Mean (± SD) temperature change from baseline,horses [2]; Hour 6,−1.9 (± 1.1) ° F.
same,Fever reduction post-dose,"horses [2]; Hours 1, 2, 3, 6",significantly reduced fever at all measured timepoints post-dose
same,Horses with reduced fever (>1° F.),"horses [2]; eight horses, Hour 6",87.5%
same,Horses with return to normothermia (≥2° F.),"horses [2]; eight horses, Hour 6",75%
same,Mean (standard deviation) temperature,"horses [3]; Phase 1, hour 4",100.0 ° F.
same,Mean (standard deviation) temperature,"horses [3]; Phase 1, hour 6",100.8 ° F.
same,Mean (standard deviation) temperature,"horses [3]; Phase 2 (crossover), hour 4",100.4 ° F.
same,Mean (standard deviation) temperature,"horses [3]; Phase 2 (crossover), hour 6",100.8 ° F.
same,Rectal temperature compared to controls,"horses [3]; 30 mg/kg IV, both phases, Hour 4, p<0.0001",significantly lowered rectal temperatures
